From article PMC3366684, “Studies on the Synthesis of Derivatives of Marine-Derived Bostrycin and Their Structure-Activity Relationship against Tumor Cells” (Marine Drugs, 2012)

Tests used:
MCF-7 cells = assay: MTT cytotoxicity assay, MCF-7; format: cell-based, human; settings: MCF7; human breast cancer cell line; MTT, 48 h exposure; mean ± SD, three independent experiments
Experimental: (§1) All compounds were evaluated for their in vitro cytotoxic activity against five human cancer cell lines including human breast MCF-7, human breast MDA-MB-435, human lung A549, human liver HepG2 and human colon HCT-116, and compared with their effects on the immortalized human breast epithelial cell line MCF-10A by MTT assay using epirubicin (an anticancer drug used widely in the clinic) as positive control.
(§2) MCF-7, MDA-MB-435, A549, HepG2 and HCT-116 cells were cultured in Dulbecco’s modification Eagle’s medium (DMEM, Invitrogen, Carlsbad, CA, USA) supplemented with 10% fetal bovine serum (FBS, Hyclone, Logan, UT, USA), 2 mM L-glutamine, 100 μg/mL streptomycin and 100 U/mL penicillin (Invitrogen). MCF-10A cells were cultured in keratinocyte serum free medium (KSFM) supplemented with 0.1–0.2 ng/mL human recombinant epidermal growth factor and 20–30 μg/mL bovine pituitary extract (Invitrogen). The cells were incubated at 37 °C in a humidified atmosphere with 5% CO2.
(§3) Cells were harvested during logarithmic growth phase and seeded in 96-well plates at a density of 1 × 10^4 cells/mL, and cultured at 37 °C in a humidified incubator (5% CO2) for 24 h, followed by exposure to various concentrations of compounds tested for 48 h. Subsequently 20 μL of MTT (Genview, Houston, TX, USA) solution (5 mg/mL) was added to each well and mixed, the cells were then incubated for an additional 4 h. Culture supernatant was moved, 150 μL of DMSO (Sangon Biotech, Shanghai, China) was added to each well to fully dissolve the MTT-formazan crystals. Cell growth inhibition was determined by measuring the absorbance (Abs) at λ = 570 nm using a microplate reader and calculated according to the following equation:
(§4) Growth inhibition = (1 − OD of treated cells/OD of control cells) × 100%
(§5) The half maximal inhibitory concentrations (IC50) were obtained from liner regression analysis of the concentration-response curves plotted for each tested compound.

MDA-MB-435 cells = assay: MTT cytotoxicity assay, MDA-MB-435; format: cell-based, human; settings: MDA-MB-435; human breast cancer cell line; MTT, 48 h exposure; mean ± SD, three independent experiments
Experimental: as §1, §2, §3, §4, §5

HepG2 cells = assay: MTT cytotoxicity assay, HepG2; format: cell-based, human; settings: Homo sapiens, HepG2, 48 h, human liver cancer cell line; MTT, 48 h exposure; mean ± SD, three independent experiments
Experimental: as §1, §2, §3, §4, §5

HCT-116 cells = assay: MTT cytotoxicity assay, HCT-116; format: cell-based, human; settings: HCT-116; human colon cancer cell line; MTT, 48 h exposure; mean ± SD, three independent experiments
Experimental: as §1, §2, §3, §4, §5

A549 cells = assay: MTT cytotoxicity assay, A549; format: cell-based, human; settings: A549; human lung cancer cell line; MTT, 48 h exposure; mean ± SD, three independent experiments
Experimental: as §1, §2, §3, §4, §5

[1] = MTT cytotoxicity assay, MCF-10A; format: cell-based; settings: MCF-10A cells, immortalized human breast epithelial cell line, 48 h exposure, mean ± SD, three independent experiments
Experimental: as §1, §2, §3, §4, §5

[2] = tested on: five human cancer cell lines (MCF-7, MDA-MB-435, A549, HepG2, HCT-116); assay: MTT cytotoxicity assay, panel of five human cancer cell lines (summary statements); format: cell-based; settings: MCF-7, MDA-MB-435, A549, HepG2 and HCT-116, read-out: IC50 against the tested human cancer cell lines (summary over the panel)
Experimental: as §1, §2
Cells were harvested during logarithmic growth phase and seeded in 96-well plates at a density of 1 × 10^4 cells/mL, and cultured at 37 °C in a humidified incubator (5% CO2) for 24 h, followed by exposure to various concentrations of compounds tested for 48 h. […] Cell growth inhibition was determined by measuring the absorbance (Abs) at λ = 570 nm using a microplate reader and calculated according to the following equation: […]

Row | Structure (SMILES) | melting point [°C] | IC50 (MCF-7 cells) [µM] | IC50 (MDA-MB-435 cells) [µM] | IC50 (HepG2 cells) [µM] | IC50 (HCT-116 cells) [µM] | IC50 (A549 cells) [µM] | IC50 at 48 h [1] [µM] | IC50 [2] [µM]
1 | CCCNC1=CC(=O)c2c(O)c3c(c(O)c2C1=O)C[C@](C)(O)[C@H](O)[C@H]3O [Compound 10, 6-(n-Propylamino)-6-demethoxybostrycin] | 210 to 211 | 14 ± 0.98 | > 50 | 18 ± 0.6 | 26.4 ± 0.89 | 21.5 ± 1.43 | > 50 | –
2 | COC1=CC(=O)c2c(O)c3c(c(O)c2C1=O)C[C@](C)(O)[C@H](O)C3 [Compound 2, Deoxybostrycin] | 224 to 225 | 2.69 ± 0.31 | 3.19 ± 0.92 | 9.99 ± 0.55 | 5.69 ± 0.25 | 4.49 ± 0.13 | 13.8 ± 0.76 | –
3 | COC1=CC(=O)c2c(O)c3c(c(O)c2C1=O)C[C@]1(C)OC(=O)O[C@@H]1[C@H]3O [Compound 8, 2,3-O-(carbonyl) Bostrycin] | 246 to 247 | 1.59 ± 0.16 | 1.26 ± 0.12 | 3.32 ± 0.58 | 2.92 ± 0.06 | 0.52 ± 0.02 | 21.7 ± 1.45 | –
4 | COc1cc(O)c2c(c1O)C(=O)c1cc(C)ccc1C2=O [Compound 4, Austrocortinin] | 232 to 233 | > 50 | 41.6 ± 2.63 | > 50 | > 50 | > 50 | > 50 | > 50

Continued, in another order:

Row | melting point [°C] | Structure (SMILES) | IC50 (MCF-7 cells) [µM] | IC50 (MDA-MB-435 cells) [µM] | IC50 (HepG2 cells) [µM] | IC50 (HCT-116 cells) [µM] | IC50 (A549 cells) [µM] | IC50 at 48 h [1] [µM] | IC50 [2] [µM]
5 | 147 to 148 | C[C@]1(O)Cc2c(O)c3c(c(O)c2[C@H](O)[C@H]1O)C(=O)C=C(NCc1ccc(F)cc1)C3=O [Compound 19, 6-(p-Fluorobenzylamino)-6-demethoxybostrycin] | 7.94 ± 0.26 | 7.86 ± 1.2 | > 50 | 4.92 ± 0.38 | 6.25 ± 0.43 | 7.5 ± 0.69 | –
6 | 236 to 237 | CCCCNC1=CC(=O)c2c(O)c3c(c(O)c2C1=O)C[C@](C)(O)[C@H](O)[C@H]3O [Compound 11, 6-(n-Butylamino)-6-demethoxybostrycin] | 1.08 ± 0.21 | > 50 | 35.7 ± 1.29 | 36.5 ± 0.53 | 25.1 ± 0.74 | > 50 | –
7 | 153 to 154 | C[C@]1(O)Cc2c(O)c3c(c(O)c2[C@H](O)[C@H]1O)C(=O)C=C(NCc1ccccc1)C3=O [Compound 17, 6-(Benzylamino)-6-demethoxybostrycin] | 28.7 ± 2.37 | 40.4 ± 1.49 | > 50 | 20.6 ± 0.37 | 21.3 ± 2.02 | 19.8 ± 0.63 | –
8 | 124 to 125 | CCCCSC1=C(SCCCC)C(=O)c2c(O)c3c(c(O)c2C1=O)C[C@](C)(O)[C@H](O)[C@H]3O [Compound 24, 6,7-bis(n-Butylthio)-6-demethoxybostrycin] | 2.45 ± 0.48 | 7.05 ± 0.56 | 4.03 ± 0.13 | 3.25 ± 0.54 | 4.06 ± 0.42 | 30.6 ± 2.54 | –
